Measurements taken from PMC8402619 (Viruses, 2021).
Where two headings read alike, the source gives them in different places.

Legend:
[1] = Plasma protein binding by equilibrium dialysis, mouse plasma; type: in vitro ADME; details: pH 7.4
[2] = Metabolism in human intestinal S9 fraction; type: in vitro ADME; details: [3H]islatravir 5 µM, M4 the only metabolite detected
[3] = Renal clearance after 1 mg/kg intravenous, mouse; type: in vivo, male CD-1 mice; details: 1 mg/kg intravenously
[4] = target: CYP2C9 (Homo sapiens, UniProt P11712); test: Reversible CYP inhibition in pooled human liver microsomes; type: in vitro ADME
[5] = target: T1, OCT1 (Homo sapiens, UniProt O15245); test: Inhibition of transporter-mediated probe uptake in CHO-K1-OCT1 cells; type: in vitro ADME
T1 construct: expressed in transfected cells; host or cells: CHO-K1
T1 sequence (O15245 1-554): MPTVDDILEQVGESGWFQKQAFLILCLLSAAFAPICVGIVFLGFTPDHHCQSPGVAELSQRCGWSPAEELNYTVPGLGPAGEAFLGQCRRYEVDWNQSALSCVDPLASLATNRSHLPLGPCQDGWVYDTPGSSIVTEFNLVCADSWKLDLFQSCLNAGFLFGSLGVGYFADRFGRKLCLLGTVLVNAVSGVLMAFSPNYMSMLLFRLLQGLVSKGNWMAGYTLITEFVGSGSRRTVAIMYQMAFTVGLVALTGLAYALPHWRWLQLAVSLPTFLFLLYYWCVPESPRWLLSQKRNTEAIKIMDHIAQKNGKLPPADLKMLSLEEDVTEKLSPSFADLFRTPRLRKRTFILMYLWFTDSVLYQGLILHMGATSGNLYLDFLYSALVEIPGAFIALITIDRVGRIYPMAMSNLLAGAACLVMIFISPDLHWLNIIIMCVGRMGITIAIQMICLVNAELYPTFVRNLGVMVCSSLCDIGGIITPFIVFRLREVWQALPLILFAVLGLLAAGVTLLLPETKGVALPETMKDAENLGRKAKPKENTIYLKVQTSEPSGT

[6] = target: T2, MRP2 (Homo sapiens, UniProt Q92887); test: Inhibition of ATP-dependent probe uptake in Sf9 membrane vesicles; type: in vitro ADME; details: MRP2-mediated ATP-dependent uptake of ethacrynic acid glutathione conjugate
T2 construct: purchased Thermo Fisher Scientific; host or cells: Sf9

[7] = target: T3, MRP4 (Homo sapiens, UniProt O15439); test: as above; type: in vitro ADME; details: MRP4-mediated ATP-dependent uptake of folic acid
T3 construct: purchased Thermo Fisher Scientific; host or cells: Sf9

[8] = target: T4, MATE1 (Homo sapiens, UniProt Q96FL8); test: Islatravir uptake as substrate, CHO-K1 vs CHO-K1-MATE1 cells; type: in vitro ADME
T4 construct: expressed in transfected cells; host or cells: CHO-K1
T4 sequence (Q96FL8 1-570): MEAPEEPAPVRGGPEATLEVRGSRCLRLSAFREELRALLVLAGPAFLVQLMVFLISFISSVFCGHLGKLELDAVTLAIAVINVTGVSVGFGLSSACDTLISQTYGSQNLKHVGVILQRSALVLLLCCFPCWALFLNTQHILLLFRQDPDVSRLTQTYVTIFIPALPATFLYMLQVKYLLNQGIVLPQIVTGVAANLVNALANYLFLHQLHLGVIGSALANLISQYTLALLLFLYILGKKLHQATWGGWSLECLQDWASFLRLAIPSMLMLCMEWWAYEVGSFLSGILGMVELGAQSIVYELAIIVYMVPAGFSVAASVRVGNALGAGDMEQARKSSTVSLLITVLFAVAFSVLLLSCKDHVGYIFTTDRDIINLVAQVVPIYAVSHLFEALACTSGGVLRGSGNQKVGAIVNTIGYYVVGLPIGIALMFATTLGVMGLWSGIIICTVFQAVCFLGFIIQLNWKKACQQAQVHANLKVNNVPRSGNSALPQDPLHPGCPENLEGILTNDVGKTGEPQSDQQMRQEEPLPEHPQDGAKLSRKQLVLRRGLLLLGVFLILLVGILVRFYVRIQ

[9] = target: T5, BCRP (Homo sapiens, UniProt Q9UNQ0); test: Bidirectional transport across MDCKII and MDCKII-BCRP cell monolayers; type: in vitro ADME; set-up: expressed in transfected cells; host or cells: MDCKII; details: for efflux ratio at 3 h, 2 µM: human
T5 sequence (Q9UNQ0 1-655): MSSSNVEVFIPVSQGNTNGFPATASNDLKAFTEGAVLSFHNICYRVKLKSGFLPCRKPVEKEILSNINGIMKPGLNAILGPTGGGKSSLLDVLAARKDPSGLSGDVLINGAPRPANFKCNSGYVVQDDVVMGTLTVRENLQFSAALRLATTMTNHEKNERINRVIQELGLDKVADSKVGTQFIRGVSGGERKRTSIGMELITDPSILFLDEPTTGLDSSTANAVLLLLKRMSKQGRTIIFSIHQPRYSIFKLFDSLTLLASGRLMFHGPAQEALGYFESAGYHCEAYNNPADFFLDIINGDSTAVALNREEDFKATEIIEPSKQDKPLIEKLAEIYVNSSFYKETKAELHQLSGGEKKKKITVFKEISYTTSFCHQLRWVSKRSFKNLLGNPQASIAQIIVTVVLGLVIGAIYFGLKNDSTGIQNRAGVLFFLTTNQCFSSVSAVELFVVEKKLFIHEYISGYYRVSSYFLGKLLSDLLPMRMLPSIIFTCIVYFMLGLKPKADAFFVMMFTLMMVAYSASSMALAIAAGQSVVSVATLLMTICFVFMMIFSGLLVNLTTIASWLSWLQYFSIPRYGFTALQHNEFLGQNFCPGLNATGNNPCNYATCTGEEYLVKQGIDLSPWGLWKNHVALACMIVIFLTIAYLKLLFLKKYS

Chain of CYP2C9 (P11712 whole entry): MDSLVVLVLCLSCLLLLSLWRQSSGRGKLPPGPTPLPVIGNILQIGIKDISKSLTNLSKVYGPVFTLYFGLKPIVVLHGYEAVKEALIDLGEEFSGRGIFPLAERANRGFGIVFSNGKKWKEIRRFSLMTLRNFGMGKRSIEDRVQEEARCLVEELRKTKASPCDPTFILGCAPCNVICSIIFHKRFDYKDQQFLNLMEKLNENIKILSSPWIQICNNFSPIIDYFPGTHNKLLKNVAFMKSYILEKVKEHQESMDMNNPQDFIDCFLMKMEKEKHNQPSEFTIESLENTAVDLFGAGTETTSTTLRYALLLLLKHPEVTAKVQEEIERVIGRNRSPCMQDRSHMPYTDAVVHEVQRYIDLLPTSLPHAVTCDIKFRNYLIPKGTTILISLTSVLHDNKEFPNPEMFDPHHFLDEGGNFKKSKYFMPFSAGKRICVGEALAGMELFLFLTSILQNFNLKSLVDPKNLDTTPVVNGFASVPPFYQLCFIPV
T2 sequence (Q92887 whole entry): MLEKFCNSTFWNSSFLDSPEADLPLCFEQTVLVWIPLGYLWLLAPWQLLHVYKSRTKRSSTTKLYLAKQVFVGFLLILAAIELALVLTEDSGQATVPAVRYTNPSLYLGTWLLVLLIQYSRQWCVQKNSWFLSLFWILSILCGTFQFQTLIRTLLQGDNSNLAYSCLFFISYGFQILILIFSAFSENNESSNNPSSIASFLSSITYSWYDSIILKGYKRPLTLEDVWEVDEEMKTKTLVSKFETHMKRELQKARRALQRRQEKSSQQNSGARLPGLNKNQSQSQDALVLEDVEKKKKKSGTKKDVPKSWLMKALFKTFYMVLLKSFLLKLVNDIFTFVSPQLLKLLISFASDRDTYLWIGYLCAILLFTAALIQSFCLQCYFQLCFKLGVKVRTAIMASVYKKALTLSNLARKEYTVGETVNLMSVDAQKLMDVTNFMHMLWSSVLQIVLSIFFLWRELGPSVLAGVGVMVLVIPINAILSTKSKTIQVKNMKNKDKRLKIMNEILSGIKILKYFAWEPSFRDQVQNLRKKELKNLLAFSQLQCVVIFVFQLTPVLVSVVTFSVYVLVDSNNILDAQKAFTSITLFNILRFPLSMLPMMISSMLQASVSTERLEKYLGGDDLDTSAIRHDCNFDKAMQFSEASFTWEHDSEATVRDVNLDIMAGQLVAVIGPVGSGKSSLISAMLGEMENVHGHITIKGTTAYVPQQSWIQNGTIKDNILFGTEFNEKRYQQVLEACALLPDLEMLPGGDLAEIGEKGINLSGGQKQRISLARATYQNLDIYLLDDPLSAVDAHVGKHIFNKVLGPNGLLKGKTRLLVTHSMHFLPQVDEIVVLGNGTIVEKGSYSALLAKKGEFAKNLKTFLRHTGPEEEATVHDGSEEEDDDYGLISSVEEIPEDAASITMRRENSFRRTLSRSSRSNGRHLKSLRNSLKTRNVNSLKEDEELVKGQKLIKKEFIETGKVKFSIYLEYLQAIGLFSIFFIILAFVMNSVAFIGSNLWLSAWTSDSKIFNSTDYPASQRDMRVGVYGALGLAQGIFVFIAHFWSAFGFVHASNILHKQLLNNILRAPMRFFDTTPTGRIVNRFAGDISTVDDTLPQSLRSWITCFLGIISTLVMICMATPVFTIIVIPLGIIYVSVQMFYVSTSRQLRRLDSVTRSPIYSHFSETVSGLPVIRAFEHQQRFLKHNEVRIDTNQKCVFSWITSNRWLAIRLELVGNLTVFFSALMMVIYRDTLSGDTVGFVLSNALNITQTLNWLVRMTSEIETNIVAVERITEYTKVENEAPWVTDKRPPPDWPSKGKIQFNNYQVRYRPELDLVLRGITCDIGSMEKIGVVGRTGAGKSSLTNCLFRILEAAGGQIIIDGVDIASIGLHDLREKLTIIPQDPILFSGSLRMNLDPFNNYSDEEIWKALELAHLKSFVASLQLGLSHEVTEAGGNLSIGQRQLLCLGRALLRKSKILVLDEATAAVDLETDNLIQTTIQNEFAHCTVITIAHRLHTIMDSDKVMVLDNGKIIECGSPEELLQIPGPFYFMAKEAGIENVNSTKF
T3 sequence (O15439 whole entry): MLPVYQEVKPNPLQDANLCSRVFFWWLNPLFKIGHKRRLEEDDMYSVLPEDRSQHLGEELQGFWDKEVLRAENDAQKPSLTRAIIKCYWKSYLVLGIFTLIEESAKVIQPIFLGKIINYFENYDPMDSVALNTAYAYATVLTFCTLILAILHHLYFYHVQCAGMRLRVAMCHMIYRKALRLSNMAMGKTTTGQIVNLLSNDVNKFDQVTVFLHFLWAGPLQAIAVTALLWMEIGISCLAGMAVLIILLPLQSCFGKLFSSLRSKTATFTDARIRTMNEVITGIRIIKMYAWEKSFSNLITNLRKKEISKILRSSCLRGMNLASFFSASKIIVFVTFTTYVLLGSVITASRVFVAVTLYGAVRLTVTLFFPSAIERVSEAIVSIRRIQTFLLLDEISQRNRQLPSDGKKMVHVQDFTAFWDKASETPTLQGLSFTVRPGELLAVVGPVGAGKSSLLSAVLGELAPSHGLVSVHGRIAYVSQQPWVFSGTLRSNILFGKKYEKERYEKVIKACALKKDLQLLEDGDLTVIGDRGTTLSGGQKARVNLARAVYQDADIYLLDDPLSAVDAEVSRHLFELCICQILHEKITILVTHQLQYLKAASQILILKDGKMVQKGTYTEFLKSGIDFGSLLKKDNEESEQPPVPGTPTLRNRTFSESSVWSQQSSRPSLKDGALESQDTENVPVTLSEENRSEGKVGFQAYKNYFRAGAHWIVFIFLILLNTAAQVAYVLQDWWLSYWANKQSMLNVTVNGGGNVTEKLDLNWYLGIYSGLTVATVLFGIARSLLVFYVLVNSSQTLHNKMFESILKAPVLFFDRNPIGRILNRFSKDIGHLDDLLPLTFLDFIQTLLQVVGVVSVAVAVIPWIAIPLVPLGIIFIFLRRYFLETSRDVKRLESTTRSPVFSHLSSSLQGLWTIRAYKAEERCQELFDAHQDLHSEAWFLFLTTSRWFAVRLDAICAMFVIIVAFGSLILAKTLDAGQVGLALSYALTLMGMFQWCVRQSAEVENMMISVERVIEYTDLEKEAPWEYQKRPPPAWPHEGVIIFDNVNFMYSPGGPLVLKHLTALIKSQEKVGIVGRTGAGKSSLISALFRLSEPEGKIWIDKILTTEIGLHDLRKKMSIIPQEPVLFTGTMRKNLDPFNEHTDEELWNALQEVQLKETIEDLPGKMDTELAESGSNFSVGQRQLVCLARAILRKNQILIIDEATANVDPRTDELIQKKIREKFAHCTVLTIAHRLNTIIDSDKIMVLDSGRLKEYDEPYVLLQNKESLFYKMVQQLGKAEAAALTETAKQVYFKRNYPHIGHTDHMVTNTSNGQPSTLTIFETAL

In the case of `C#C[C@]1(CO)O[C@@H](n2cnc3c(N)nc(F)nc32)C[C@@H]1O` [Islatravir, 4′-Ethynyl-2-fluoro-2′-deoxyadenosine], the fraction unbound at 24 h, 0.1 µM [1] is reported as greater than 0.84, the turnover [2] is reported as “low turnover” and the “Renal Excretion (% Total Plasma Clearance)” value [3] is reported as 61%. For the same compound, the CL renal ([3]; male, CD-1, plasma and urine, iv, urine 0-24 h) was 15.4 mL/min/kg, the “DDI Potential” value ([4]; CYP2C9 reversible inhibition, FDA, EMA, PMDA guidance) was “Low risk” and the “Maximum Unbound Plasma Concentration (Imax,u) to Ki,u Ratio” value ([4]; CYP2C9 reversible, 60 mg, Cmax 1.01 µM, fu,p 0.96, Ki,u = IC50/2) was less than 0.019 µM. The IC50 ([4]; reversible, CYP2C9 diclofenac 4′-hydroxylation, read-out: Islatravir IC50) was greater than 100 µM, the IC50 ([5]; OCT1-mediated uptake of metformin, read-out: Islatravir IC50) was greater than 300 µM and the “Maximum Unbound Inlet Concentration (Iin,max,u) to IC50 Ratio” value ([5]; OCT1, 60 mg dose) was less than 0.035. The “DDI Potential” value ([5]; OCT1 inhibition, FDA, EMA, PMDA guidance) was “Low risk”, the IC50 [6] was greater than 100 µM and the IC50 [7] was greater than 100 µM. The “Islatravir Uptake Transporter-Expressing Cells” value ([8]; CHO-K1-MATE1, 2 µM [14C]islatravir, 20 min, mean ± SD, n = 3) was 2.94 ± 0.20 pmole/10^6 Cells, the Fold-Difference ([8]; MATE1, uptake into transporter-expressing cells to control cells, 20 min) was 1.01 and the “Islatravir Uptake Control Cells” value ([8]; MATE1 row, CHO-K1 control cells, 2 µM [14C]islatravir, 20 min, mean ± SD, n = 3) was 2.90 ± 0.27 pmole/10^6 Cells. The Conclusions ([8]; MATE1 substrate assessment) was “Non-substrate”, the BCRP substrate assessment ([9]; bi-directional transport assay) was “substrate of BCRP” and the Papp at 3 h, 2 µM ([9]; dog, MDCK, MDCKII cells, read-out: apparent permeability coefficient (Papp)) was 1.6 to 2.2 ×10⁻⁶ cm/s. For the same compound, the efflux ratio at 2 µM ([9]; dog, MDCK, islatravir 2 µM, untransfected control cells, mean ± SEM, read-out: mean Papp(B to A)/Papp(A to B) efflux ratio) was 0.8 ± 0.2, the efflux ratio at 3 h, 2 µM ([9]; islatravir 2 µM, BCRP-transfected monolayers with Ko143 (5 µM), mean ± SEM, read-out: mean Papp(B to A)/Papp(A to B) efflux ratio) was 0.9 ± 0.1 and the efflux ratio at 3 h, 2 µM ([9]; islatravir 2 µM, BCRP-transfected monolayers, mean ± SEM, read-out: mean Papp(B to A)/Papp(A to B) efflux ratio) was 4.3 ± 1.1.
